# Results taken from US11312721B2 (priority 2015, dated 2022).
# Experiments:
# GABAA receptors (α5β2γ2) = target: T1, GABAA receptors (α5β2γ2) (Homo sapiens, UniProt P18507+P31644); assay: Positive allosteric modulator activity: potentiation of EC20 GABA current in oocytes; type: cell-based; settings: read-out: GABA α5 functional potentiation
# T1 construct: expressed in transfected cells
# Description: On day 1, 1 ng/32 nL of GABAA α5β2γ2 cDNA was injected into one oocyte. Test starts on day 2. The cDNA injected to the oocytes was a mix of alpha, beta and gamma, their ratio is 1:1:10 (by weight) and the total weight of the mixed 3 subunits to be injected in one oocyte was 1 ng in 32 nl volume. The injected oocytes can also be tested on day 3. In such case, the cDNA amount injected to the oocytes should be reduced by 20%.
# 1). 8 oocytes were placed in 8 chambers of OpusXpress and superfused with Modified Barth's Saline (MBS) at 3 mL/min. Glass electrodes back-filled with 3M KCl (0.5-3 megaohms) were used.
# 1). Repeat the above steps 1), 2) and 3) in the control test.
# 2). […] Divide Itest by IGABA to obtain potentiation (%).
# 3). Discard all tested oocytes, new oocytes were used and the above steps 1) and 2) were repeated to test second concentration of the same compound. Each oocyte was used for only one concentration test for a single test compound. The steps were repeated for other test compounds.
# [1] = target: T2, α5β3γ2 GABAA receptors (Ltk cells) (Homo sapiens, UniProt P18507+P31644); assay: Binding activity on GABAAR: inhibition of [3H]Ro15-1788 binding
# T2 construct: membranes
# T2 sequence (P31644 32-462): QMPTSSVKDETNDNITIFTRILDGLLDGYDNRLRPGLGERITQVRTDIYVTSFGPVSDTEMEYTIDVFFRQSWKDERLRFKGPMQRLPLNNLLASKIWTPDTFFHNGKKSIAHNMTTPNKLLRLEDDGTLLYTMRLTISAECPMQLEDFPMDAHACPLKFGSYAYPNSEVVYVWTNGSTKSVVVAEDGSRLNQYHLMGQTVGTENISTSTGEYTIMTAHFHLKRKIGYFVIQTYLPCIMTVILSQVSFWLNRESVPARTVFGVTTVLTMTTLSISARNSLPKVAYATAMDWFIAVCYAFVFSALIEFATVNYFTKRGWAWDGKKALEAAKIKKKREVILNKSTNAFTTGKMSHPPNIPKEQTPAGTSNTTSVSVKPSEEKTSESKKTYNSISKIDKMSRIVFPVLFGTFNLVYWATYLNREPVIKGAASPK
# T2 sequence (P28472 26-473 partner): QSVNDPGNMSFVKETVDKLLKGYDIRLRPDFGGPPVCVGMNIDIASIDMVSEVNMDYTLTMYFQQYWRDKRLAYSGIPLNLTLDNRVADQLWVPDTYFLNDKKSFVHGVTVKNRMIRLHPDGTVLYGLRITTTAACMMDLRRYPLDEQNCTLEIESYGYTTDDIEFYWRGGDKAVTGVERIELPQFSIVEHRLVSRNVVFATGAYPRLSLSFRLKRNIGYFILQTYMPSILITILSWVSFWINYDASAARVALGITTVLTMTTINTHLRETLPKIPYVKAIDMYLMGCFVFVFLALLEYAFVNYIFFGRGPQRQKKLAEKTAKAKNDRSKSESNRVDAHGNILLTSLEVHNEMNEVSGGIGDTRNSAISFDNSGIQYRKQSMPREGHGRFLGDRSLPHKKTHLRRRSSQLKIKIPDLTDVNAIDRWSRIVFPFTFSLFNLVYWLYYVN
# T2 sequence (P18507 40-475): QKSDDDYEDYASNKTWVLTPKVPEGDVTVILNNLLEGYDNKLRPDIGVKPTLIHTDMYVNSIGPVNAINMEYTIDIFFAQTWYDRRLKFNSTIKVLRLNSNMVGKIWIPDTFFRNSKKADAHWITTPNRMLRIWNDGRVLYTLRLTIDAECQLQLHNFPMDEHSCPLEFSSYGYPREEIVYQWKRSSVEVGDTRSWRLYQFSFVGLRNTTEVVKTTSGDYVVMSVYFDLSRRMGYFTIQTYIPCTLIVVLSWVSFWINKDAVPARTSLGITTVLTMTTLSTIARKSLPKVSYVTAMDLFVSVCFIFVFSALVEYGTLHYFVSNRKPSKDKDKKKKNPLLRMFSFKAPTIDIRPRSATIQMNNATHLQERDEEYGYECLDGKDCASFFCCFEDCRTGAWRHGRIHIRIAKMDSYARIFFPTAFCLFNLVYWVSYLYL
# Description: Tissue culture and Membrane Preparation: The binding was performed on Ltk cells stably expressing GABAA receptors: α1β1γ2, α2β3γ2, α3β3γ2 and α5β3γ2 (provided by Merck Co., NJ, USA). Cells were seeded in 100 mm culture plates in DMEM/F12 medium containing 10% serum and antibiotics in 5% CO2 and allowed to grow for 1-2 days. GABAAR expression was then induced by dexamethasone as follows: 0.5 μM for 1 day for α5 containing and 2 μM for 3 days for α1, α2 and α3 containing GABAARs. After induction, cells were collected by scraping into Dulbecco's Phosphate buffered saline (DPBS, pH 7.4, Invitrogen, Carlsbad, Calif., USA) and centrifuged at 150×g for 10 min. The pellet was washed twice by re-suspension and centrifugation. The cell pellets from at least 5 different preps were combined, suspended in the binding assay buffer (50 mM KH2PO4; 1 mM EDTA; 0.2 M KCl, pH 7.4) and membranes prepared by sonication (3-5 times, 30 sec) using Branson Sonifier 150 (G. Heinmann, Germany). Protein content was determined using BCA assay (Bio-Rad Labs, Reinach, Switzerland) with Bovine Serum Albumin (Sigma Aldrich, St. Louis, Mo., USA) as the standard. Aliquots were prepared and stored at −20° C. for further use in binding assays.
# Ligand Binding: Saturation binding curves were obtained by incubating membranes with increasing concentrations (0.01-8 nM) of [^3H]Ro15-1788 (Flumazepil, 75-85 Ci/mmol, PerkinElmer, MA, USA), with nonspecific binding measured in the presence of 10 μM diazepam.
# All binding assays were performed for 1 h at 4° C. in assay buffer. The total assay volume was 0.5 ml containing 0.2 mg/ml protein for α5 and 0.4 mg/ml for α1, α2, and α3 containing GABAAR membranes. Incubations were terminated by filtration through GF/B filters using a 24-Cell Harvestor (Brandel, Gaithersburg, Md., USA) followed by 3 washes with ice-cold assay buffer. Filters were transferred to scintillation vials, 5 ml scintillation liquid added, vortex-mixed and kept in dark. Next day, radioactivity was obtained using a scintillation counter (Beckman Coulter, Brea, Calif., USA). All assays were performed in triplicate.
# Data Analyses: Saturation and inhibition curves were obtained using GraphPad Prism software (GraphPad Software, Inc., CA, USA).
# T1 sequence (P31644 32-462): as the sequence (P31644 32-462) above
# T1 sequence (P47870 25-512 partner limits assumed): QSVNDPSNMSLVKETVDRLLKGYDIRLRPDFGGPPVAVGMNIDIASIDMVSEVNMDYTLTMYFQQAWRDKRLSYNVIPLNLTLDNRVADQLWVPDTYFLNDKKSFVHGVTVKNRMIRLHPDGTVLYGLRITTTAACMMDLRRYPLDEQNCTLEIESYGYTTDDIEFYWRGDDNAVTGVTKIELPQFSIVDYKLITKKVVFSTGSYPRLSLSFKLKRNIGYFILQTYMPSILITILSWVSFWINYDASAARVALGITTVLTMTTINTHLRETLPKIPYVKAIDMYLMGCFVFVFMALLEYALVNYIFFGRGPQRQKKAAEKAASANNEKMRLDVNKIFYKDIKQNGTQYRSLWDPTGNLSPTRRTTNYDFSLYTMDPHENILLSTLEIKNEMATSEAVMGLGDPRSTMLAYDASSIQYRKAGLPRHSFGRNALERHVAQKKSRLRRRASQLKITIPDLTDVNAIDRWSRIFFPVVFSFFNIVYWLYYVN
# T1 sequence (P18507 40-475): as the sequence (P18507 40-475) above
SMILES,activation at 0.1 µM (GABAA receptors (α5β2γ2)),Ki [1]
CCOC(=O)c1ncn2c1Cc1c(COc3cccc(OC)c3)nnn1-c1cc(OC)ccc1-2 [Compound 11],20 to 49%,–
COc1ccc2c(c1)-n1nnc(Cc3ccc(F)cc3)c1Cc1c(Br)ncn1-2 [Compound 213],20 to 49%,–
CCOC(=O)c1ncn2c1Cc1c(COc3ccccc3)nnn1-c1cc(OC)ccc1-2 [Compound 9],20 to 49%,–
Cc1noc(-c2ncn3c2Cc2c(Cc4ccccc4)nnn2-c2cc(F)ccc2-3)n1 [Compound 109],20 to 49%,–
Cc1noc(-c2ncn3c2Cc2c(C)nnn2-c2ccccc2-3)n1 [Compound 126],20 to 49%,–
Cc1nnn2c1Cc1c(-c3noc(C(C)(C)C)n3)ncn1-c1ccc(F)cc1-2 [Compound 160],> 50%,–
COc1ccc2c(c1)-c1nnc(COc3cccnc3)n1Cc1c(-c3noc(C(C)C)n3)ncn1-2 [Compound 176],> 50%,–
COc1ccc2c(c1)-c1nnc(COc3cccc4ccccc34)n1Cc1c(-c3noc(C(C)C)n3)ncn1-2 [Compound 177],> 50%,–
COc1ccc2c(c1)-c1nnc(COc3ccccc3F)n1Cc1c(-c3noc(C(C)C)n3)ncn1-2 [Compound 174],> 50%,–
Cc1nc(-c2ncn3c2Cn2c(COc4ccccc4)nnc2-c2cc(F)ccc2-3)no1 [Compound 148],20 to 49%,–
COc1ccc2c(c1)-c1nnc(COC3CCCC3)n1Cc1c(-c3noc(C(C)C)n3)ncn1-2 [Compound 178],> 50%,–
COc1ccc2c(c1)-c1nnc(COc3cccc(F)c3)n1Cc1c(-c3noc(C(C)C)n3)ncn1-2 [Compound 179],> 50%,–
Cc1nnn2c1Cc1c(C(=O)OC(C)C)ncn1-c1ccccc1-2 [Compound 153],20 to 49%,–
COc1ccc2c(c1)-c1nnc(COc3ccc(F)cc3)n1Cc1c(C#N)ncn1-2 [Compound 191],20 to 49%,–
CCOC(=O)c1ncn2c1Cc1c(Cc3cccnc3)nnn1-c1cc(C)ccc1-2 [Compound 111],20 to 49%,–
Cc1nnn2c1Cc1c(-c3noc(C(C)C)n3)ncn1-c1ccc(F)cc1-2 [Compound 149],> 50%,–

SMILES,activation at 0.1 µM (GABAA receptors (α5β2γ2)),Ki [1]
COCc1nnc2n1Cc1c(-c3nc(C(C)C)no3)ncn1-c1ccc(OC)cc1-2 [Compound 130],20 to 49%,–
Cc1nc(-c2ncn3c2Cc2c(C)nnn2-c2ccccc2-3)no1 [Compound 127],20 to 49%,–
Cc1nnn2c1Cc1c(C(=O)OCC(C)(C)C)ncn1-c1ccc(F)cc1-2 [Compound 113],> 50%,–
CCOC(=O)c1ncn2c1Cc1c(Cc3ccc(F)cc3)nnn1-c1cc(F)ccc1-2 [Compound 46],–,< 99 nM
CCOCc1nnc2n1Cc1c(C3=NC(C)CO3)ncn1-c1ccc(Cl)cc1-2 (centres unmarked) [Compound 259],–,< 99 nM
COCc1nnc2n1Cc1c(-c3ncc(C)o3)ncn1-c1ccc(Cl)cc1-2 [Compound 296],–,< 99 nM
COCc1nnc2n1Cc1c(-c3cc(C)no3)ncn1-c1ccc(Cl)cc1-2 [Compound 233],–,< 99 nM
C#CCNC(=O)c1ncn2c1Cn1c(COC)nnc1-c1cc(Cl)ccc1-2 [Compound 234],–,> 1000 nM
C#Cc1ccc2c(c1)-c1nnc(COC)n1Cc1c(C3=N[C@H](CC(C)C)CO3)ncn1-2 [Compound 280],–,< 99 nM
CCOCc1nnc2n1Cc1c(C3=NC(c4ccccc4)CO3)ncn1-c1ccc(Cl)cc1-2 (centres unmarked) [Compound 260],–,< 99 nM
COc1ccc2c(c1)-n1nncc1Cc1c(C3=N[C@@H](c4ccccc4)CO3)ncn1-2 [Compound 289],–,< 99 nM
C#Cc1ncn2c1Cn1c(COC(C)C)nnc1-c1cc(Cl)ccc1-2 [Compound 288],–,< 99 nM
CCOC(=O)c1ncn2c1Cc1c(C)nnn1-c1cc(C)ccc1-2 [Compound 102],–,< 99 nM
COc1ccc2c(c1)-n1nnc(COc3ccccc3F)c1Cc1c(C#N)ncn1-2 [Compound 223],–,< 99 nM
C#Cc1ncn2c1Cc1c(C(=O)c3ccc(F)cc3)nnn1-c1cc(OC)ccc1-2 [Compound 218],–,< 99 nM
COc1ccc2c(c1)-n1nnc(Cc3cccc(Cl)c3)c1Cc1c(C#N)ncn1-2 [Compound 209],–,< 99 nM
